Each compound was assayed against T1, factor IXa (Homo sapiens, UniProt P00740) (assay: Factor IXa enzyme assay (inhibition of enzymatic activity of FIXa, substrate PEFA 3107)). Conditions: 277 nM factor IXa, pH 7.4, 15 min preincubation at room temperature, read at 405 nm.
T1 construct: Factor IX is a proenzyme; purchased Calbiochem (Merck KGaA) 233290
Assay type: biochemical
Protocol: The prepared substances from the examples were tested for inhibition of the enzymatic activity of FIXa using the substrate PEFA 3107 (Pentapharm/Loxo; via S. Black GmbH, Baumstrasse 41, 47198 Duisburg, Germany; Pr. No. 095-20) and factor IXa (Calbiochem, Merck KGaA markets Calbiochem in Germany, Life Science & Analytics, 64293 Darmstadt; Pr. No. 233290). In this method, 28 μl of test buffer (50 mM α,α,α-tris(hydroxymethyl)methylamine (TRIS), 100 mM NaCl, 5 mM CaCl2, 0.1% bovine serum albumin, pH 7.4) and 10 μl of factor IXa (277 nM final concentration in the test batch) were added to 2 μl of 10 mM dimethyl sulfoxide solution of the respective test substance, and the mixture was incubated for 15 minutes at room temperature in a 96 half-well microtiter plate. The enzyme reaction was started by addition of 10 μl of substrate (1 mM stock solution in water). The time course of the reaction was monitored at 405 nm in a microtiter plate reader (SpectraMax plus 384; Molecular Devices) for 15 minutes. The IC50 was calculated from the averaged values (duplicate determination) of a dilution series of the test substance with the aid of the software Grafit 4 (Erithacus Software, UK). The inhibition constants (Ki) were calculated according to the Cheng Prusoff equation Ki=IC50/(1+(S/Km), where S=concentration of the test substrate in the test and Km=Michaelis-Menten constant.

T1 sequence (P00740 227-461 limits assumed): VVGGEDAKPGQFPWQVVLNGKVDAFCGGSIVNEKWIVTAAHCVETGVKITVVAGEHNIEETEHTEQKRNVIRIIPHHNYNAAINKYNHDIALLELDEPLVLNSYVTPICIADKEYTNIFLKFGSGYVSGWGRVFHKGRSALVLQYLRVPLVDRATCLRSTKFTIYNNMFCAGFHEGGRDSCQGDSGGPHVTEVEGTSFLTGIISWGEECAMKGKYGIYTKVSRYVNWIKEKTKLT
T1 sequence (P00740 47-191 partner limits assumed): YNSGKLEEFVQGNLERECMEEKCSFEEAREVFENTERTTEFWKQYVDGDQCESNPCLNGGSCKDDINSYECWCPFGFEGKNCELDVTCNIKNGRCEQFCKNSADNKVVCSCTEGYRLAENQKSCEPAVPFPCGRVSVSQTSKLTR

IC50 [nM]	Compound
220	Cc1ccc(NC(=O)[C@H](O)[C@@H](O)C(=O)Nc2ccc3c(N)nccc3c2)cc1 [Example 1, (2R,3R)—N-(1-Aminoisoquinolin-6-yl)-2,3-dihydroxy-N′-p-tolyltartaramide; compound with trifluoroacetic acid]
170	Cc1ccc(NC(=O)[C@H](O)[C@@H](O)C(=O)Nc2ccc(C(=N)N)cc2)cc1 [Example 5, (2R,3R)—N-(4-Carbamimidoylphenyl)-2,3-dihydroxy-N′-p-tolylsuccinamide; compound with trifluoroacetic acid]
370	Nc1nc2ccc(NC(=O)[C@H](O)[C@@H](O)C(=O)Nc3ccc(Oc4ccccc4)cc3)cc2[nH]1 [Example 12, (2R,3R)—N-(2-amino-3H-benzimidazol-5-yl)-2,3-dihydroxy-N′-(4-phenoxyphenyl)-tartaramide]
